Test results as given in ChEMBL document CHEMBL1201862, “PubChem BioAssay data set” (2004).
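The compound was tested at five concentrations on cells cultured in 96-well plates, with a 48-hour exposure period. The concentration for 50% growth inhibition is given as GI50.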 Active and inactive are the calls of the source. Cut-off read from the data, not from the text of the source: active = GI50 up to about 1.1 µM and inactive = higher.

Legend:
Test in all cases: NCI anticancer screen, dose series, 48 h
MDA-MB-435 = system: MDA-MB-435
M14 = system: M14
SNB-19 = system: SNB-19
MDA-N = system: MDA-N
LOX IMVI = system: LOX IMVI
IGROV-1 = system: IGROV-1
SNB-75 = system: SNB-75
CAKI-1 = system: CAKI-1
T47D = system: T47D
UACC-257 = system: UACC-257
SW-620 = system: SW-620
HL-60 = system: HL-60
DU-145 = system: DU-145
MDA-MB-231 = system: MDA-MB-231
SF-539 = system: SF-539
SK-MEL-2 = system: SK-MEL-2
NCI-H23 = system: NCI-H23
MCF7 = system: MCF7
RPMI-8226 = system: RPMI-8226
HCC 2998 = system: HCC 2998

Measured: GI50

O=C1CC(c2cccc([N+](=O)[O-])c2)C2(C(=O)NC(=S)NC2=O)C(c2cccc([N+](=O)[O-])c2)C1 (stereo not given)
inactive: MDA-MB-435 23.5 µM | M14 21.9 µM | SNB-19 21.8 µM | MDA-N 43 µM | LOX IMVI 16.5 µM | IGROV-1 31.3 µM | SNB-75 43.4 µM | CAKI-1 12.9 µM | T47D 81.3 µM | UACC-257 89.7 µM | SW-620 50.7 µM | HL-60 40.3 µM | DU-145 34.1 µM | MDA-MB-231 16.6 µM | SF-539 40.6 µM | SK-MEL-2 35.9 µM | NCI-H23 29.2 µM | MCF7 26.8 µM | RPMI-8226 59.7 µM | HCC 2998 20.2 µM

O=c1[nH]cc(F)c(=O)[nH]1 [FLUOROURACIL]
inactive: MDA-MB-435 10.6 µM | M14 46.5 µM | SNB-19 116 µM | MDA-N 8.07 µM | LOX IMVI 6.03 µM | IGROV-1 14.3 µM | SNB-75 181 µM | CAKI-1 4.45 µM | T47D 75.5 µM | UACC-257 95.7 µM | SW-620 27.7 µM | HL-60 20.9 µM | DU-145 9.29 µM | MDA-MB-231 489 µM | SF-539 1.33 µM | SK-MEL-2 372 µM | NCI-H23 12.2 µM | MCF7 1.75 µM | RPMI-8226 4.91 µM | HCC 2998 1.6 µM
